Measured values taken from patent publication US7666639B2, “Plant deoxyribonucleoside kinase enzymes and their use” (priority 2002, dated 2010).

Test system: N-terminally deleted tomato dNK enzyme (TOM-ΔNdCK/dGK)
Assay: Deoxyribonucleoside kinase activity in extract of KY895 transformed with pGEX-2T-TOM-ΔNdCK/dGK
Assay type: biochemical, Lycopersicum esculentum
Settings: pGEX-2T-TOM-ΔNdCK/dGK
Procedure: The E. coli strain KY895 (F^−, tdk-1, ilv) [Knecht W, Munch-Petersen B and Piskur J: Identification of residues involved in the specificity and regulation of the highly efficient multisubstrate deoxyribonucleoside kinase from Drosophila melanogaster; J. Mol. Biol. 2000 301 827-837] was transformed by various expression plasmids using standard techniques. Transformed KY895 strains were grown to an OD600 nm of 0.5-0.6 in LB/Ampicillin (100 μg/ml) medium at 37° C., and protein expression was induced by addition of 100 μM IPTG. The cells were further grown for 4 hours at 25° C. and subsequently harvested by centrifugation.
Pellets were stored at −80° C. until activity testing. Pellets were submitted to brief sonification in extraction buffer (50 mM Tris/HCl pH 7.5, 1 mM DTT, 10% (v/v) glycerol, 1% (v/v) Triton X-100, protease inhibitor cocktail (Complete™ from Roche Diagnostics).
Deoxyribonucleoside kinase activities were determined in the KY895 extracts by initial velocity measurements based on four time samples by the DE-81 filter paper assay using tritium-labelled nucleoside substrates. 4 to 20 μg extracts were used in the assays. The assay was done as described by Munch-Petersen et al. [Munch-Petersen, B., Knecht, W, Lenz, C., Sondergaard, L. & Piskur, J: Functional expression of a multisubstrate deoxyribonucleoside kinase from Drosophila melanogaster and its C-terminal deletion mutants; J. Biol. Chem. 2000 275 6673-6679].
The protein concentration was determined according to Bradford with BSA as standard protein [Bradford M M: A rapid and sensitive method for the quantitation of microgram quantities of protein utilizing the principle of protein-dye binding; Anal. Biochem. 1976 72 248-254]. SDS-PAGE was done according to the procedure of Laemmli [Laemmli U K: Cleavage of structural proteins during the assembly of the head of bacteriophage T4; Nature 1970 227 680-685], and proteins were visualized by Coomassie staining to verify recombinant protein expression.
The four natural deoxyribonucleosides were tested at a fixed concentration of 100 μM. The highest specific activity in each extract was set to 100%.

Row | SMILES | ability to phosphorylate the deoxyribonucleoside (in words)
1 | Nc1ncnc2c1ncn2[C@H]1C[C@H](O)[C@@H](CO)O1 [dAdo, deoxyadenosine] | able to phosphorylate
2 | Nc1ccn([C@H]2C[C@H](O)[C@@H](CO)O2)c(=O)n1 [dCyd, deoxycytidine] | able to phosphorylate
